The values below come from patent publication US9603364B2 (Dow AgroSciences LLC, priority 2013, dated 2017).

SMILES strings stand for the structures.

What all share (assay): General post-emergent herbicidal activity, foliar application
Holding throughout (format): in vivo

The subject of one experiment is Zea mays L. (corn). To be noted: 336 h, scored after 14 days, read-out: % Visual Growth Reduction ZEAMX; for plant injury at 140 g/ha: 140 g ai/ha; for plant injury at 35 g/ha: 35 g ai/ha. The procedure:
(§1) A weighed amount, determined by the highest rate to be tested, of each test compound was placed in a 25 mL glass vial and was dissolved in 4 mL of a 97:3 v/v (volume/volume) mixture of acetone and dimethyl sulfoxide to obtain concentrated stock solutions which will be referred to as General Purpose Solvent. […] The concentrated stock solutions obtained were diluted with 20 mL of an aqueous mixture containing water, General Purpose Solvent, isopropyl alcohol, Atplus 411F crop oil concentrate, and Triton X-155 surfactant in a 46:42:12:1.0:0.02 v/v ratio to obtain spray solutions containing the highest application rates. Additional application rates were obtained by serial dilution of 12 mL of the high rate solution into a solution containing 2 mL of 97:3 v/v (volume/volume) mixture of acetone and dimethyl sulfoxide and 10 mL of an aqueous mixture containing water, General Purpose Solvent, isopropyl alcohol, Atplus 411F crop oil concentrate, and Triton X-155 surfactant in a 46:42:12:1.0:0.02 v/v ratio to obtain 1/2×, 1/4×, 1/8× and 1/16× rates of the high rate. […] Control plants were sprayed in the same manner with the solvent blank.
(§2) The treated plants and control plants were placed in a greenhouse as described above and watered by sub-irrigation to prevent wash-off of the test compounds. After 14 days, the condition of the test plants as compared with that of the untreated plants was determined visually and scored on a scale of 0 to 100 percent where 0 corresponds to no injury and 100 corresponds to complete kill.

A further experiment relates to Oryza sativa L. (rice). Conditions: scored after 14 days; for plant injury at 140 g/ha: 140 g ai/ha. The procedure:
as §1, §2

The subject of experiment [1] is Helianthus annuus L. (sunflower, common). To be noted: for pest or weed control at 140 g/ha: 140 g ai/ha; for GR80 Value HELAN: calculated by probit analysis, dose for 80% visual injury, may be extrapolated. The method, then: as §1, §2
(§3) By applying the well-accepted probit analysis as described by J. Berkson in […], 48, 565 (1953) and by D. Finney in “Probit Analysis” Cambridge University Press (1952), the dose response data gathered as expressed above can be used to calculate GR20, GR50 and GR80 values, which are defined as growth reduction factors that correspond to the effective dose of herbicide required to kill or control 20 percent, 50 percent or 80 percent, respectively, of a target plant. Data not expressed in Table A may have been used to calculate some of the GR80 values in Table B. In some cases, the GR80 values may be extrapolations calculated based on the slope of the dose response curve for individual compounds listed in Table B.

For experiment [2], the system named is Euphorbia heterophylla L. (poinsettia, wild). Conditions: for pest or weed control at 140 g/ha: 140 g ai/ha; for GR80 Value EPHHL: calculated by probit analysis, dose for 80% visual injury, may be extrapolated; for pest or weed control at 35 g/ha: 35 g ai/ha; for pest or weed control at 70 g/ha: 70 g ai/ha. The procedure:
as §1, §2, §3

In experiment [3] the test system is Echinochloa crus-galli (L.) Beauv. (barnyardgrass). To be noted: for pest or weed control at 140 g/ha: 140 g ai/ha; for GR80 Value ECHCG: calculated by probit analysis, may be extrapolated; for pest or weed control at 35 g/ha: 35 g ai/ha; for pest or weed control at 70 g/ha: 70 g ai/ha. The method, then: as §1, §2, §3
Experiment [4] concerns Amaranthus retroflexus L. (pigweed, redroot). Conditions: for GR80 Value AMARE: calculated by probit analysis, dose for 80% visual injury, may be extrapolated; for pest or weed control at 70 g/ha: 70 g ai/ha. The method, then:
as §1, §2, §3

For experiment [5], the system named is Chenopodium album L. (lambsquarters, common). Conditions: for pest or weed control at 140 g/ha: 140 g ai/ha; for GR80 Value CHEAL: calculated by probit analysis, dose for 80% visual injury, may be extrapolated; for pest or weed control at 35 g/ha: 35 g ai/ha; for pest or weed control at 70 g/ha: 70 g ai/ha. The method, then:
as §1, §2, §3

The subject of experiment [6] is Viola tricolor L. (pansy). Conditions: for pest or weed control at 140 g/ha: 140 g ai/ha; for GR80 Value VIOTR: calculated by probit analysis, may be extrapolated. The method, then: as §1, §2, §3
[7] abbreviates: Oryza sativa, 336 h, read-out: % Visual Growth Reduction ORYSA.
Setting [8] is: Helianthus annuus, 336 h, foliar post-emergent, scored after 14 days, read-out: % Visual Growth Reduction HELAN.
Setting [9] is: Euphorbia heterophylla, 336 h, foliar post-emergent, scored after 14 days, read-out: % Visual Growth Reduction EPHHL.
The mark [10] stands for this setting: Echinochloa crus-galli, 336 h, foliar post-emergent, scored after 14 days, read-out: % Visual Growth Reduction ECHCG.
Setting [11] is: Amaranthus retroflexus, 336 h, 140 g ai/ha, foliar post-emergent, scored after 14 days, read-out: % Visual Growth Reduction AMARE.
The mark [12] stands for this setting: Chenopodium album, 336 h, foliar post-emergent, scored after 14 days, read-out: % Visual Growth Reduction CHEAL.
Setting [13] is: Viola tricolor, 336 h, foliar post-emergent, scored after 14 days, read-out: % Visual Growth Reduction VIOTR.
The mark [14] stands for this setting: Oryza sativa, 336 h, 35 g ai/ha, read-out: % Visual Growth Reduction ORYSA.
Where [15] appears, read: Amaranthus retroflexus, 336 h, foliar post-emergent, scored after 14 days, read-out: % Visual Growth Reduction AMARE.
Where [16] appears, read: calculated, dose for 80% visual injury, prior art tables.

Consider `Nc1c(Cl)c(CF)nc(C(=O)O)c1Cl` [Compound F25, 4-Amino-3,5-dichloro-6-(fluoromethyl)picolinic acid], for which the plant injury at 140 g/ha with Zea mays L. (corn) and in the experiment with Oryza sativa L. (rice) (setting [7]) was 0% in each case. For the same compound, the plant injury at 280 g/ha with Zea mays L. (corn) (280 g ai/ha) came out at 0%; in the experiment on Oryza sativa L. (rice) (Oryza sativa, 336 h, 280 g ai/ha, read-out: % Visual Growth Reduction ORYSA), 0%. In addition, the pest or weed control at 140 g/ha in experiment [1] (setting [8]) was determined as 80%; in experiment [2] (setting [9]), 100%; in experiment [3] (setting [10]) it was 0%; in experiment [4] (setting [11]), 80%; in experiment [5] (setting [12]), 80%; in experiment [6] (setting [13]) it was 0%. Moreover, the pest or weed control at 280 g/ha in experiment [1] (Helianthus annuus, 336 h, 280 g ai/ha, foliar post-emergent, scored after 14 days, read-out: % Visual Growth Reduction HELAN) was 90%; in experiment [2] (Euphorbia heterophylla, 336 h, 280 g ai/ha, foliar post-emergent, scored after 14 days, read-out: % Visual Growth Reduction EPHHL), 100%; in experiment [3] (Echinochloa crus-galli, 336 h, 280 g ai/ha, foliar post-emergent, scored after 14 days, read-out: % Visual Growth Reduction ECHCG), 50%; in experiment [4] (Amaranthus retroflexus, 336 h, 280 g ai/ha, foliar post-emergent, scored after 14 days, read-out: % Visual Growth Reduction AMARE), 85%; in experiment [5] (Chenopodium album, 336 h, 280 g ai/ha, foliar post-emergent, scored after 14 days, read-out: % Visual Growth Reduction CHEAL), 80%; in experiment [6] (Viola tricolor, 336 h, 280 g ai/ha, foliar post-emergent, scored after 14 days, read-out: % Visual Growth Reduction VIOTR), 0%. The “GR80 Value HELAN” value in experiment [1] was 146 g ai/ha. Besides, the “GR80 Value EPHHL” value in experiment [2] is listed as less than 17.5 g ai/ha. Further, the “GR80 Value ECHCG” value in experiment [3] (dose for 80% visual injury) is recorded as 373 g ai/ha. For the same compound, the “GR80 Value AMARE” value in experiment [4] was 180 g ai/ha. Besides, the “GR80 Value CHEAL” value in experiment [5] is given as 176 g ai/ha. In addition, the “GR80 Value VIOTR” value in experiment [6] (dose for 80% visual injury) was greater than 280 g ai/ha.
With `COC(=O)c1nc(C(C)F)c(Cl)c(N)c1Cl` (stereo not drawn) [Compound F10, Methyl 4-amino-3,5-dichloro-6-(1-fluoroethyl)picolinate], the plant injury at 35 g/ha in the experiment on Zea mays L. (corn) and in the experiment on Oryza sativa L. (rice) (setting [14]) was 0% in each case. Moreover, the plant injury at 70 g/ha came out at 0% in the experiment with Zea mays L. (corn) (70 g ai/ha) and 0% in the experiment on Oryza sativa L. (rice) (Oryza sativa, 336 h, 70 g ai/ha, read-out: % Visual Growth Reduction ORYSA). Also, the plant injury at 140 g/ha with Zea mays L. (corn) and with Oryza sativa L. (rice) (setting [7]) was 0% in each case. The pest or weed control at 35 g/ha in experiment [1] (Helianthus annuus, 336 h, 35 g ai/ha, foliar post-emergent, scored after 14 days, read-out: % Visual Growth Reduction HELAN) was 80%; in experiment [2] (setting [9]) it was 0%; in experiment [3] (setting [10]), 0%; in experiment [4] (Amaranthus retroflexus, 336 h, 35 g ai/ha, foliar post-emergent, scored after 14 days, read-out: % Visual Growth Reduction AMARE) it was 85%; in experiment [5] (setting [12]), 80%; in experiment [6] (Viola tricolor, 336 h, 35 g ai/ha, foliar post-emergent, scored after 14 days, read-out: % Visual Growth Reduction VIOTR), 0%. Also, the pest or weed control at 70 g/ha in experiment [1] (Helianthus annuus, 336 h, 70 g ai/ha, foliar post-emergent, scored after 14 days, read-out: % Visual Growth Reduction HELAN) is 85%; in experiment [2] (setting [9]) it was 20%; in experiment [3] (setting [10]), 0%; in experiment [4] (setting [15]) it was 98%; in experiment [5] (setting [12]) it was 85%; in experiment [6] (Viola tricolor, 336 h, 70 g ai/ha, foliar post-emergent, scored after 14 days, read-out: % Visual Growth Reduction VIOTR), 0%. The pest or weed control at 140 g/ha came to 100% in experiment [1] (setting [8]); 30% in experiment [2] (setting [9]); 0% in experiment [3] (setting [10]); 100% in experiment [4] (setting [11]); 85% in experiment [5] (setting [12]); 0% in experiment [6] (setting [13]). Also, the “GR80 Value HELAN” value in experiment [1] was 124 g ai/ha. Moreover, in experiment [2], the “GR80 Value EPHHL” value is on record as greater than 140 g ai/ha. For the same compound, in experiment [3] (dose for 80% visual injury), the “GR80 Value ECHCG” value is greater than 140 g ai/ha. Also, the “GR80 Value AMARE” value in experiment [4] was 18.1 g ai/ha. For the same compound, the “GR80 Value CHEAL” value in experiment [5] is on record as 23.7 g ai/ha. Further, in experiment [6] (dose for 80% visual injury), the “GR80 Value VIOTR” value is listed as greater than 140 g ai/ha.
For `COC(=O)c1nc(CC(F)F)c(F)c(N)c1Cl` [Compound F2, methyl 4-amino-3-chloro-6-(2,2-difluoroethyl)-5-fluoropicolinate], the plant injury at 140 g/ha in the experiment on Zea mays L. (corn) and in the experiment on Oryza sativa L. (rice) (setting [7]) was 0% throughout. Also, the pest or weed control at 140 g/ha in experiment [1] (setting [8]) amounted to 80%; in experiment [2] (setting [9]), 100%; in experiment [3] (setting [10]), 0%; in experiment [4] (setting [11]), 100%; in experiment [5] (setting [12]), 90%; in experiment [6] (setting [13]) it was 0%. For the same compound, the “GR80 Value HELAN” value in experiment [1] is recorded as 80.8 g ai/ha. The “GR80 Value EPHHL” value in experiment [2] is reported as 114 g ai/ha. Moreover, in experiment [3] (dose for 80% visual injury), the “GR80 Value ECHCG” value is greater than 140 g ai/ha. For the same compound, in experiment [4], the “GR80 Value AMARE” value was 103 g ai/ha. Also, the “GR80 Value CHEAL” value in experiment [5] was 103 g ai/ha. Moreover, the “GR80 Value VIOTR” value in experiment [6] (dose for 80% visual injury) is given as greater than 140 g ai/ha.
Take `COC(=O)c1nc(C(F)(F)F)cc(N)c1Cl` [Prior Art 1, reference compound]: the plant injury at 35 g/ha in the experiment with Zea mays L. (corn) and in the experiment with Oryza sativa L. (rice) (setting [14]) was 0% in each case. Also, the “% Visual Growth Reduction ORYSA” value in the experiment on Oryza sativa L. (rice) (35 g ai/ha) amounted to 0%. Besides, the pest or weed control at 35 g/ha came out at 80% in experiment [2] (setting [9]), 0% in experiment [3] (setting [10]) and 80% in experiment [5] (setting [12]). The pest or weed control at 70 g/ha in experiment [2] (setting [9]) amounted to 85%; in experiment [3] (setting [10]) it was 0%; in experiment [4] (setting [15]) it was 80%; in experiment [5] (setting [12]), 85%. Moreover, the pest or weed control at 140 g/ha in experiment [2] (setting [9]) is 95%; in experiment [3] (setting [10]), 0%; in experiment [4] (setting [11]), 100%; in experiment [5] (setting [12]) it was 100%; in experiment [6] (setting [13]) it was 95%. In addition, the “GR80 Values ECHCG” value in experiment [3] (setting [16]) was greater than 140 g/ha. In experiment [4] (140 g ai/ha, foliar post-emergent, scored after 14 days), the “% Visual Growth Reduction AMARE” value is given as 100%. Further, the “GR80 Values VIOTR” value in experiment [6] (setting [16]) is 121 g/ha.
